Experimental data: US20250263404A1, “AMINOPYRIDINES AS ACTIVATORS OF PI3 KINASE” (UCL Business Ltd, priority 2021, published 2025)

Key:
p110α/p85α = biological target: T1, p110α/p85α (Homo sapiens, UniProt P42336); experiment: HDX-MS of full-length p110α/p85α; conditions: wild-type p110α/p85α
T1 construct: Full-length p110α was expressed in a complex with full-length p85α (for biochemistry and HDX-MS); 6xHis followed by TEV protease site (N); made in house; host or cells: Spodoptera frugiperda Sf9 (baculovirus co-infection; plasmids OP831 and OP809)
From the text: The inventors used hydrogen-deuterium exchange mass spectrometry (HDX-MS) which allows the investigation of compound binding sites and conformational changes using soluble, native proteins, and which has been key to unravel the molecular mechanisms of physiological activation of class IA PI3Ks. Class IA PI3K activation occurs through de-inhibition of the auto-inhibited p85/p110 complex, via the release of inhibitory interactions between p85 and p110, upon binding of the complex to bis-phosphorylated motifs in membrane-resident receptors or cytosolic adaptors. […]
In total, three biological replicates, i.e., three separate protein preparations, each with exchange experiments were carried out in triplicate were conducted. […] A “blank” sample of protein dilution buffer with quench was run between samples, and carry-over of peptides was routinely monitored. […] Data was analysed using Protein Lynx Global Server (Waters) and DynamX (Waters). […] Data quality, experiment design, and reporting of data meets the criteria as determined by the HDX-MS community (Masson, G. R. et al. Nat Methods 16, 595-602 (2019)). […]

[1] = system: mutant PI3Kα (D603K, D603A, 603DCN_AAA605, D603A/F1016S, L1006R, F1016S, L1006R/F1016S); experiment: Activation of binding-pocket mutants of PI3Kα; format: biochemical; conditions: all mutants activatable by pY
From the text: The inventors then performed mutagenesis in attempt to generate 1938-resistant mutants. Based on the crystal structure and SAR data, we made the following mutants: D603K, D603A, 603DCN_AAA605 triple mutant, D603A/F1016S double mutant, L1006R, F1016S, and the L1006R/F1016S double mutant.

T1 sequence (P42336 whole entry): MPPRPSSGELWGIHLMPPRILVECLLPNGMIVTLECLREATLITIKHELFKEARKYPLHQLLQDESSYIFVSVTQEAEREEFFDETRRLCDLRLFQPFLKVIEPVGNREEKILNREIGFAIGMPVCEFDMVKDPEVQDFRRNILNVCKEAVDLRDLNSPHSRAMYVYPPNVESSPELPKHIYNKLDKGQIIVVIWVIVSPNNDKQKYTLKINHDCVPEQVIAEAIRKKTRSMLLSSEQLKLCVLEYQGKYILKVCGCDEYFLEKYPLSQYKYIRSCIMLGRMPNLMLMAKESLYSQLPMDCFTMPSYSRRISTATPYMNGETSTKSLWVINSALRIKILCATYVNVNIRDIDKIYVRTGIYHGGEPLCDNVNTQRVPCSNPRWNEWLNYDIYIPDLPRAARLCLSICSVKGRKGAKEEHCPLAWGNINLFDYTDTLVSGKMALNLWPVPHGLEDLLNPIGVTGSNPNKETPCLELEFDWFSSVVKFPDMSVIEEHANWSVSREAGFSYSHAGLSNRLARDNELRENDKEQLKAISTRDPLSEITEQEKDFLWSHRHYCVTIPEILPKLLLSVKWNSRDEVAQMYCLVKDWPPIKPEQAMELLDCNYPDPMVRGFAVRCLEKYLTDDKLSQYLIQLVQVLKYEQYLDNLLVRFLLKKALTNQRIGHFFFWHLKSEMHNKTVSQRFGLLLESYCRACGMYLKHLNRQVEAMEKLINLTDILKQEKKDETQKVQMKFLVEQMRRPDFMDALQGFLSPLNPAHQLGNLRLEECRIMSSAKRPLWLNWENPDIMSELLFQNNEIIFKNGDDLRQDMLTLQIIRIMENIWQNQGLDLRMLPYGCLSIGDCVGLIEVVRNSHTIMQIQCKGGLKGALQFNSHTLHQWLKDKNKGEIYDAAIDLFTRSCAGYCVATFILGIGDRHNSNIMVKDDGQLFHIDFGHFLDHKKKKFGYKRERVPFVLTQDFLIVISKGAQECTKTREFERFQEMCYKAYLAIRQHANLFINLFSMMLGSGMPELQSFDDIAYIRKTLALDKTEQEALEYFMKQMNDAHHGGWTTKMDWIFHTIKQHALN
T1 sequence (P27986 whole entry partner): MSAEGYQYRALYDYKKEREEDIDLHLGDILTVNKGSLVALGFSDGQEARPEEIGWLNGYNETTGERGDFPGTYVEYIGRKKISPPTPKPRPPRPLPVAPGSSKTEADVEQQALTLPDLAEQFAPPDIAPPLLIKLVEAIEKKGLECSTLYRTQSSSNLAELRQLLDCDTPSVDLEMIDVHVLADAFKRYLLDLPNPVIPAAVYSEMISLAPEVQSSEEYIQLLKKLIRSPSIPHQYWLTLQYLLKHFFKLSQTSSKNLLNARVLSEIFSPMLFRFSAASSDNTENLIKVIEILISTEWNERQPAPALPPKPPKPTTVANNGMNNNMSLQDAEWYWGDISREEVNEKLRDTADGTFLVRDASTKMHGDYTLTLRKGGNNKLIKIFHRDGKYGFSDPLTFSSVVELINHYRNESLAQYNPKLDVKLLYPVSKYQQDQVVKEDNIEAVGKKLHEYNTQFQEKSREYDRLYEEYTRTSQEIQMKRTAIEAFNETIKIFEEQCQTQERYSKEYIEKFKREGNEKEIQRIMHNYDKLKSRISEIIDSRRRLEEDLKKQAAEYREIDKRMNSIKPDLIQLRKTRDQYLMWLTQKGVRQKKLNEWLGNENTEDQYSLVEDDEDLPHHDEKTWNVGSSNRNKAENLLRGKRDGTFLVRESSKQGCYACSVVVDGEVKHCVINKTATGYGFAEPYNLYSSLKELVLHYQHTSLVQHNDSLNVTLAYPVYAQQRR

- Movement of the adapter-binding domain (p110α/p85α): −/?
- activation of pocket mutants by 1938 [1]: resistant to activation by 1938
Compound: CCN1CCN(c2ccc(Nc3cc(Nc4cccc5c4N(C(C)=O)CC5)ccn3)cc2)CC1 [Example 1938]
